This is an account of results in paper PMC8227885 (Viruses, 2021).

As a reminder, the IC50 is the concentration needed to halve the response being measured. Low values mean inhibition by little substance, high ones a need for much substance.

Each structure is given as a SMILES string.

This assay deals with SARS-CoV-2 RBD:ACE2 (UniProt P0DTC2+Q9BYF1). Briefly: biochemical. Also on record: species or system SARS-CoV-2 (RBD); human (ACE2).
SARS-CoV-2 RBD:ACE2, sequence (Q9BYF1 18-615, one chain of several): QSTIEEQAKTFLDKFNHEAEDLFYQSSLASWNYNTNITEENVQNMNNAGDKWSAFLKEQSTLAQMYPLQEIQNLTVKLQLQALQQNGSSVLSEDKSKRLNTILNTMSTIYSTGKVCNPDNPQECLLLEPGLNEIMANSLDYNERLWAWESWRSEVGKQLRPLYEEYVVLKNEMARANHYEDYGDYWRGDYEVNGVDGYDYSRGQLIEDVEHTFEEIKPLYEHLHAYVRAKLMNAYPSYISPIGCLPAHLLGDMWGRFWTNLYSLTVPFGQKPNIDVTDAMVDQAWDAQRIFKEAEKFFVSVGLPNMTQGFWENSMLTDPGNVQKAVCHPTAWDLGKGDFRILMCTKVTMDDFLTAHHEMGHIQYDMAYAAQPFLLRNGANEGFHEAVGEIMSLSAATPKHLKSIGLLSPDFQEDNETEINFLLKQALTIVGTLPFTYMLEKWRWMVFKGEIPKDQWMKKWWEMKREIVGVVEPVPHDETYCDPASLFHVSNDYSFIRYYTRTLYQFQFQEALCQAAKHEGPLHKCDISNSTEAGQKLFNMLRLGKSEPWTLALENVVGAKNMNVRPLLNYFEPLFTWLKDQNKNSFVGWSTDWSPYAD

Consider `O=c1c(O)cc([C@H]2Oc3cc(O)cc(O)c3C[C@H]2O)cc2c([C@H]3Oc4cc(O)cc(O)c4C[C@H]3O)cc(O)c(O)c12` [Theaflavin], for which the half-inhibitory concentration (IC50) is 41.7 µM and the “effect on SRAE2-BS activity (suppression)” value is given as “significantly suppressed SRAE2-BS activity”.
